Assay results from US20250171438A1 (Agios Pharmaceuticals, Inc., priority 2022, published 2025).

Target: T1, human PAH with the R408W mutation (Homo sapiens, UniProt P00439, R408W)
T1 construct: expressed in transfected cells
T1 sequence (P00439 1-452 R408W): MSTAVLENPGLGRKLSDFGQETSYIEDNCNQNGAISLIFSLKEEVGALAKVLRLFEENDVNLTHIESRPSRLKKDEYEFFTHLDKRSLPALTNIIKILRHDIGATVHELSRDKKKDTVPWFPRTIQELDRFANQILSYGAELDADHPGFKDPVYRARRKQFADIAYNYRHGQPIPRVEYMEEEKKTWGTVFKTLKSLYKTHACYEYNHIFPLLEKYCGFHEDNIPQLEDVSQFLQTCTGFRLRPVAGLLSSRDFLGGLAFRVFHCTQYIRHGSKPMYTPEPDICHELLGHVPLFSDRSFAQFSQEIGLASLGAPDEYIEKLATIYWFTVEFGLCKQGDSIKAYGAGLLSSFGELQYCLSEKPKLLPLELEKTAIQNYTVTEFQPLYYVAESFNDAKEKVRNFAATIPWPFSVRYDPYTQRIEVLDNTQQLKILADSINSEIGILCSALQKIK
Experiment: Cell Based Phenylalanine Flux Assay
Conditions: A375 cells expressing human R408W PAH; 24 hrs compound incubation; 13C-Tyrosine by LC-MS; average where tested multiple times; read-out: AC50

Structure (SMILES)	AC50
O=C(c1cnn2ccc(Cl)cc12)N1CCc2[nH]cnc2[C@@H]1c1nc2ccc(F)cc2s1 [Example 1152, (R)-(5-chloropyrazolo[1,5-a]pyridin-3-yl)(4-(6-fluorobenzo[d]thiazol-2-yl)-6,7-dihydro-1H-imidazo[4,5-c]pyridin-5(4H)-yl)methanone]	> 5000 nM
O=C(C1CCC1)N1CCc2[nH]cnc2[C@H]1c1nc2ccccc2s1 [Example 1153]	< 500 nM
O=C(C1CCC1)N1CCc2[nH]cnc2[C@@H]1c1nc2ccccc2s1 [Example 1154, (R)-(4-(benzo[d]thiazol-2-yl)-6,7-dihydro-1H-imidazo[4,5-c]pyridin-5(4H)-yl)(cyclobutyl)methanone]	> 5000 nM
N#Cc1ccn2ncc(C(=O)N3CCc4[nH]cnc4[C@H]3c3nc4ccc(F)cc4s3)c2c1 [Example 1155, (S)-3-(4-(6-fluorobenzo[d]thiazol-2-yl)-4,5,6,7-tetrahydro-1H-imidazo[4,5-c]pyridine-5-carbonyl)pyrazolo[1,5-a]pyridine-5-carbonitrile]	500 to 1000 nM
N#Cc1ccn2ncc(C(=O)N3CCc4[nH]cnc4[C@@H]3c3nc4ccc(F)cc4s3)c2c1 [Example 1156, (R)-3-(4-(6-fluorobenzo[d]thiazol-2-yl)-4,5,6,7-tetrahydro-1H-imidazo[4,5-c]pyridine-5-carbonyl)pyrazolo[1,5-a]pyridine-5-carbonitrile]	> 5000 nM
O=C(c1ncn2ccccc12)N1CCc2[nH]cnc2[C@@H]1c1nc2cc(F)ccc2s1 [Example 1158, (R)-(4-(5-fluorobenzo[d]thiazol-2-yl)-6,7-dihydro-1H-imidazo[4,5-c]pyridin-5(4H)-yl)(imidazo[1,5-a]pyridin-1-yl)methanone]	> 5000 nM
N#Cc1ccn2ncc(C(=O)N3CCc4[nH]cnc4[C@@H]3c3nc4cc(F)ccc4s3)c2c1 [Example 1159, (R)-3-(4-(5-fluorobenzo[d]thiazol-2-yl)-4,5,6,7-tetrahydro-1H-imidazo[4,5-c]pyridine-5-carbonyl)pyrazolo[1,5-a]pyridine-5-carbonitrile]	> 5000 nM
N#Cc1ccn2ncc(C(=O)N3CCc4[nH]cnc4[C@H]3c3nc4cc(F)ccc4s3)c2c1 [Example 1160, (S)-3-(4-(5-fluorobenzo[d]thiazol-2-yl)-4,5,6,7-tetrahydro-1H-imidazo[4,5-c]pyridine-5-carbonyl)pyrazolo[1,5-a]pyridine-5-carbonitrile]	500 to 1000 nM
Cc1ncoc1C(=O)N1CCc2[nH]cnc2[C@H]1c1nc2ccccc2s1 [Example 1161]	< 500 nM
Cc1ncoc1C(=O)N1CCc2[nH]cnc2[C@@H]1c1nc2ccccc2s1 [Example 1162, (R)-(4-(benzo[d]thiazol-2-yl)-6,7-dihydro-1H-imidazo[4,5-c]pyridin-5(4H)-yl)(4-methyloxazol-5-yl)methanone]	1000 to 5000 nM
Cc1nc(C)c(C(=O)N2CCc3[nH]cnc3[C@H]2c2nc3ccccc3s2)o1 [Example 1163]	< 500 nM
Cc1nc(C)c(C(=O)N2CCc3[nH]cnc3[C@@H]2c2nc3ccccc3s2)o1 [Example 1164, (R)-(4-(benzo[d]thiazol-2-yl)-6,7-dihydro-1H-imidazo[4,5-c]pyridin-5(4H)-yl)(2,4-dimethyloxazol-5-yl)methanone]	> 5000 nM
Cc1nn2ccccc2c1C(=O)N1CCc2[nH]cnc2[C@H]1c1nc2ccccc2s1 [Example 1165]	< 500 nM
Cc1nn2ccccc2c1C(=O)N1CCc2[nH]cnc2[C@@H]1c1nc2ccccc2s1 [Example 1166, (R)-(4-(benzo[d]thiazol-2-yl)-6,7-dihydro-1H-imidazo[4,5-c]pyridin-5(4H)-yl)(2-methylpyrazolo[1,5-a]pyridin-3-yl)methanone]	500 to 1000 nM
O=C(c1cnn2ccc(Cl)cc12)N1CCc2[nH]cnc2[C@H]1c1nc2cc(F)ccc2s1 [Example 1167]	500 to 1000 nM
O=C(c1cnn2ccc(Cl)cc12)N1CCc2[nH]cnc2[C@@H]1c1nc2cc(F)ccc2s1 [Example 1168, (R)-(5-chloropyrazolo[1,5-a]pyridin-3-yl)(4-(5-fluorobenzo[d]thiazol-2-yl)-6,7-dihydro-1H-imidazo[4,5-c]pyridin-5(4H)-yl)methanone]	1000 to 5000 nM
O=C(c1cnn2ccc(F)cc12)N1CCc2[nH]cnc2[C@@H]1c1nc2c(F)cccc2s1 [Example 1169, (R)-(4-(4-fluorobenzo[d]thiazol-2-yl)-6,7-dihydro-1H-imidazo[4,5-c]pyridin-5(4H)-yl)(5-fluoropyrazolo[1,5-a]pyridin-3-yl)methanone]	1000 to 5000 nM
O=C(c1cnn2ccc(F)cc12)N1CCc2[nH]cnc2[C@H]1c1nc2c(F)cccc2s1 [Example 1170, (S)-(4-(4-fluorobenzo[d]thiazol-2-yl)-6,7-dihydro-1H-imidazo[4,5-c]pyridin-5(4H)-yl)(5-fluoropyrazolo[1,5-a]pyridin-3-yl)methanone]	500 to 1000 nM
O=C(c1cnn2ccc(Br)cc12)N1CCc2[nH]cnc2[C@H]1c1nc2c(F)cccc2s1 [Example 1171]	< 500 nM
O=C(c1cnn2ccc(Br)cc12)N1CCc2[nH]cnc2[C@@H]1c1nc2c(F)cccc2s1 [Example 1172, (R)-(5-bromopyrazolo[1,5-a]pyridin-3-yl)(4-(4-fluorobenzo[d]thiazol-2-yl)-6,7-dihydro-1H-imidazo[4,5-c]pyridin-5(4H)-yl)methanone]	500 to 1000 nM
Cc1ccc2c(C(=O)N3CCc4[nH]cnc4[C@H]3c3nc4c(F)cccc4s3)cnn2c1 [Example 1173, (S)-(4-(4-fluorobenzo[d]thiazol-2-yl)-6,7-dihydro-1H-imidazo[4,5-c]pyridin-5(4H)-yl)(6-methylpyrazolo[1,5-a]pyridin-3-yl)methanone]	500 to 1000 nM
Cc1ccc2c(C(=O)N3CCc4[nH]cnc4[C@@H]3c3nc4c(F)cccc4s3)cnn2c1 [Example 1174, (R)-(4-(4-fluorobenzo[d]thiazol-2-yl)-6,7-dihydro-1H-imidazo[4,5-c]pyridin-5(4H)-yl)(6-methylpyrazolo[1,5-a]pyridin-3-yl)methanone]	1000 to 5000 nM
O=C(Cc1nccs1)N1CCc2[nH]cnc2[C@@H]1c1nc2cccc(Br)c2s1 [Example 1175, (R)-1-(4-(7-bromobenzo[d]thiazol-2-yl)-6,7-dihydro-1H-imidazo[4,5-c]pyridin-5(4H)-yl)-2-(thiazol-2-yl)ethanone]	1000 to 5000 nM
O=C(Cc1nccs1)N1CCc2[nH]cnc2[C@H]1c1nc2cccc(Br)c2s1 [Example 1176, (S)-1-(4-(7-bromobenzo[d]thiazol-2-yl)-6,7-dihydro-1H-imidazo[4,5-c]pyridin-5(4H)-yl)-2-(thiazol-2-yl)ethanone]	500 to 1000 nM

Further lines, results first:

AC50	Structure (SMILES)
500 to 1000 nM	Cc1nc(C)c(C(=O)N2CCc3[nH]cnc3[C@H]2c2nc3ccccc3s2)s1 [Example 1177]
> 5000 nM	Cc1nc(C)c(C(=O)N2CCc3[nH]cnc3[C@@H]2c2nc3ccccc3s2)s1 [Example 1178, (R)-(4-(benzo[d]thiazol-2-yl)-6,7-dihydro-1H-imidazo[4,5-c]pyridin-5(4H)-yl)(2,4-dimethylthiazol-5-yl)methanone]
< 500 nM	O=C(c1cnc(C2CC2)s1)N1CCc2[nH]cnc2[C@H]1c1nc2ccccc2s1 [Example 1179]
1000 to 5000 nM	O=C(c1cnc(C2CC2)s1)N1CCc2[nH]cnc2[C@@H]1c1nc2ccccc2s1 [Example 1180, (R)-(4-(benzo[d]thiazol-2-yl)-6,7-dihydro-1H-imidazo[4,5-c]pyridin-5(4H)-yl)(2-cyclopropylthiazol-5-yl)methanone]
500 to 1000 nM	O=C(c1cnc(C(F)(F)F)s1)N1CCc2[nH]cnc2[C@H]1c1nc2ccccc2s1 [Example 1181]
1000 to 5000 nM	O=C(c1cnc(C(F)(F)F)s1)N1CCc2[nH]cnc2[C@@H]1c1nc2ccccc2s1 [Example 1182, (R)-(4-(benzo[d]thiazol-2-yl)-6,7-dihydro-1H-imidazo[4,5-c]pyridin-5(4H)-yl)(2-(trifluoromethyl)thiazol-5-yl)methanone]
< 500 nM	O=C(c1cnc(NC2CC2)s1)N1CCc2[nH]cnc2[C@H]1c1nc2ccccc2s1 [Example 1183]
1000 to 5000 nM	O=C(c1cnc(NC2CC2)s1)N1CCc2[nH]cnc2[C@@H]1c1nc2ccccc2s1 [Example 1184, (R)-(4-(benzo[d]thiazol-2-yl)-6,7-dihydro-1H-imidazo[4,5-c]pyridin-5(4H)-yl)(2-(cyclopropylamino)thiazol-5-yl)methanone]
500 to 1000 nM	COCc1ncc(C(=O)N2CCc3[nH]cnc3[C@H]2c2nc3ccccc3s2)s1 [Example 1185]
1000 to 5000 nM	COCc1ncc(C(=O)N2CCc3[nH]cnc3[C@@H]2c2nc3ccccc3s2)s1 [Example 1186, (R)-(4-(benzo[d]thiazol-2-yl)-6,7-dihydro-1H-imidazo[4,5-c]pyridin-5(4H)-yl)(2-(methoxymethyl)thiazol-5-yl)methanone]
500 to 1000 nM	O=C(c1cnc(C2CC2)o1)N1CCc2[nH]cnc2[C@H]1c1nc2ccccc2s1 [Example 1187]
1000 to 5000 nM	O=C(c1cnc(C2CC2)o1)N1CCc2[nH]cnc2[C@@H]1c1nc2ccccc2s1 [Example 1188, (R)-(4-(benzo[d]thiazol-2-yl)-6,7-dihydro-1H-imidazo[4,5-c]pyridin-5(4H)-yl)(2-cyclopropyloxazol-5-yl)methanone]
1000 to 5000 nM	O=C(c1ncc(-c2ccccc2)s1)N1CCc2[nH]cnc2[C@H]1c1nc2ccccc2s1 [Example 1189]
> 5000 nM	O=C(c1ncc(-c2ccccc2)s1)N1CCc2[nH]cnc2[C@@H]1c1nc2ccccc2s1 [Example 1190, (R)-(4-(benzo[d]thiazol-2-yl)-6,7-dihydro-1H-imidazo[4,5-c]pyridin-5(4H)-yl)(5-phenylthiazol-2-yl)methanone]
